In patent publication US20100069339A1, “NOVEL METHOD OF TREATMENT OF MALE SUB-FERTILITY” (BIOXELL S.P.A., priority 2006, published 2010):
Entries after “also recorded” stand apart in the source; their conditions may differ.

Columns and labels:
human BPH cells = test: Inhibition of IL-8 production in human BPH cells by vitamin D compounds; type: cell-based; conditions: BPH cells stimulated with IL-17 10 ng/ml and interferon gamma 10 ng/ml; compounds at 1, 10 and 100 nM, 72 hours; ELISA
Procedure: Approximately 2000 human BPH cells were placed in wells of a standard 96 well plate and stimulated for 72 hours with IL-17 at 10 ng/ml and interferon gamma at 10 ng/ml and incubated with vitamin D compounds individually at concentrations of 1, 10 and 100 nM for 72 hours IL-8 production by the cells was measured by conventional two-site ELISA using human IL-8 ELISA set (BD Biosciences, San Diego, Calif.) according to the manufacturer's instructions.

IL-8 [1] = test: Seminal IL-8 in CP/CPPS patients, randomized double-blind placebo controlled study; type: in vivo, human
Text: We conducted a randomized, double-blind placebo controlled study in 121 patients with CP/CPPS. The primary objective of the study was to evaluate the effect of Compound A(150 mcg/die) after three months of treatment on the NIH score, a score encompassing pain, quality of life and lower urinary tract symptoms. As a secondary endpoint, we measured IL8 in the semen at baseline and at the end of the treatment.

IL-8 [2] = test: Sandwich ELISA re-evaluation of seminal plasma IL-8 in trial patients; type: in vivo, human; conditions: 29 Compound A-treated vs 27 Placebo-treated patients, p=0.002
Text: (§1) A sandwich ELISA system was used to re-evaluate seminal plasma IL-8 level in 27 Placebo-treated and 29 Compound A—treated patients from the trial described in Biological Example 5 and to extend the analysis to other inflammatory mediators. Note that TIMP-1 is an inhibitor of an inflammatory marker.

CCL2/MCP-1 = test: Sandwich ELISA of seminal plasma CCL2/MCP-1 in trial patients; type: in vivo, human; conditions: CP/CPPS patients, treatment vs placebo
Text: as §1

[3] = system: matrix metalloproteinase MMP2; test: Sandwich ELISA of seminal plasma MMP2 in trial patients; type: in vivo, human; conditions: CP/CPPS patients, treatment vs placebo
Text: as §1

[4] = system: soluble pattern recognition receptor PTX3; test: Sandwich ELISA of seminal plasma PTX3 in trial patients; type: in vivo, human; conditions: CP/CPPS patients, treatment vs placebo
Text: as §1

[5] = system: tissue inhibitor of metalloproteinase TIM-1; test: Sandwich ELISA of seminal plasma TIM-1 in trial patients; type: in vivo, human; conditions: CP/CPPS patients, treatment vs placebo
Text: as §1

BPH cells = conditions: cited from earlier work

With C=C1/C(=C\C=C2/CCC[C@]3(C)C([C@@H](C)C/C=C/C(O)(CC)CC)=CC[C@@H]23)C[C@@H](O)C[C@@H]1F [Compound A, 1-alpha-fluoro-25-hydroxy-16,23E-diene-26,27-bishomo-20-epi-cholecalciferol] as the compound, how does the “IL-8 production (IL-8 concentration)” value (human BPH cells) read?
The value was “can lower IL-8 levels in vitro”.

What about the “IL-8 levels in the semen vs. placebo” value (IL-8 [1]; 150 mcg/die, after 12 weeks) of the same compound?
The value was “significantly reduce; also recorded: can lower seminal IL-8 levels in human patients”.

And the “Seminal IL-8, % Change vs Baseline Week 12, 25th perc.” value (IL-8 [1]; 150 mcg/die, week 12)?
Its value is −42.37%.

What about the “Seminal IL-8, % Change vs Baseline Week 12, 75th perc.” value (IL-8 [1]; 150 mcg/die, week 12) of the same compound?
The value was 1.05%.

And the “Seminal IL-8, % Change vs Baseline Week 12, Max” value (IL-8 [1]; 150 mcg/die, week 12)?
The value was 89.48%.

What about the “Seminal IL-8, % Change vs Baseline Week 12, Mean” value (IL-8 [1]; 150 mcg/die, week 12) of the same compound?
Its value is −19.33%.

And the “Seminal IL-8, % Change vs Baseline Week 12, Median” value (IL-8 [1]; 150 mcg/die, week 12)?
The value was −19.17%.

What about the “Seminal IL-8, % Change vs Baseline Week 12, Min” value (IL-8 [1]; 150 mcg/die, week 12) of the same compound?
Its value is −61.82%.

What about the “Seminal IL-8, Abs Change vs Baseline Week 12, 25th perc.” value (IL-8 [1]; 150 mcg/die, week 12) of the same compound?
Its value is −723.00.

What about the “Seminal IL-8, Abs Change vs Baseline Week 12, 75th perc.” value (IL-8 [1]; 150 mcg/die, week 12) of the same compound?
Its value is 12.50.

What about the “Seminal IL-8, Abs Change vs Baseline Week 12, Max” value (IL-8 [1]; 150 mcg/die, week 12) of the same compound?
Its value is 604.00.

And the “Seminal IL-8, Abs Change vs Baseline Week 12, Mean” value (IL-8 [1]; 150 mcg/die, week 12)?
The value was −368.34.

And the “Seminal IL-8, Abs Change vs Baseline Week 12, Median” value (IL-8 [1]; 150 mcg/die, week 12)?
The value was −358.00.

What about the “Seminal IL-8, Abs Change vs Baseline Week 12, Min” value (IL-8 [1]; 150 mcg/die, week 12) of the same compound?
The value was −1264.00.

What about the “Seminal IL-8, Week 12, 25th perc.” value (IL-8 [1]; 150 mcg/die, week 12) of the same compound?
Its value is 809.50.

And the “Seminal IL-8, Week 12, 75th perc.” value (IL-8 [1]; 150 mcg/die, week 12)?
The value was 1394.00.

And the “Seminal IL-8, Week 12, Max” value (IL-8 [1]; 150 mcg/die, week 12)?
Its value is 2599.00.

And the “Seminal IL-8, Week 12, Mean” value (IL-8 [1]; 150 mcg/die, week 12)?
The value was 1172.57.

What about the “Seminal IL-8, Week 12, Median” value (IL-8 [1]; 150 mcg/die, week 12) of the same compound?
The value was 985.50.

What about the “Seminal IL-8, Week 12, Min” value (IL-8 [1]; 150 mcg/die, week 12) of the same compound?
The value was 386.00.

What about the “Seminal IL-8, Baseline, 25th perc.” value (IL-8 [1]; before treatment) of the same compound?
The value was 947.50.

What about the “Seminal IL-8, Baseline, 75th perc.” value (IL-8 [1]; before treatment) of the same compound?
Its value is 1903.50.

What about the “Seminal IL-8, Baseline, Max” value (IL-8 [1]; before treatment) of the same compound?
Its value is 3015.00.

What about the “Seminal IL-8, Baseline, Mean” value (IL-8 [1]; before treatment) of the same compound?
The value was 1486.43.

What about the “Seminal IL-8, Baseline, Median” value (IL-8 [1]; before treatment) of the same compound?
The value was 1376.50.

What about the “Seminal IL-8, Baseline, Min” value (IL-8 [1]; before treatment) of the same compound?
Its value is 468.00.

And the “seminal plasma IL-8 levels compared to placebo” value (IL-8 [2])?
The value was “Significantly reduced”.

And the “CCL2/MCP-1 level in seminal plasma” value (CCL2/MCP-1)?
Its value is “decreased”.

What about the “MMP2 level in seminal plasma” value [3] of the same compound?
The value was “decreased”.

And the “PTX3 level in seminal plasma” value [4]?
Its value is “decreased”.

What about the “TIM-1 level in seminal plasma” value [5] of the same compound?
The value was “enhanced”.

For C=C1CC[C@H](O)C/C1=C/C=C1\CCC[C@]2(C)[C@@H]([C@H](C)CCCC(C)C)CC[C@@H]12 [vitamin D3, 9,10-secocholesta-5,7,10(19)-trien-3B-ol], which BPH cell proliferation (BPH cells) is on record?
The BPH cell proliferation was “inhibited”.

What about the “mitogenic activity of growth factors for BPH cells” value (BPH cells; keratinocyte growth factor (KGF) and insulin-like growth factor (IGF1)) of the same compound?
Its value is “counteracted”.
